biological target: T1, recombinant human cannabinoid CB2 receptor (Homo sapiens, UniProt P34972); test: competition with [3H] CP-55,940 for binding to recombinant cannabinoid CB2 receptor membranes; conditions: not given
T1 construct: purchased Receptor Biology RB-HCB2
Description: Potential cannabinoid receptor ligands were screened for the ability to compete with [^3H] CP-55,940 for binding to recombinant cannabinoid receptors. Test compounds were serially diluted in Diluent Buffer (50 mM Tris pH 7.1, 1 mM EDTA, 3 mM MgCl2, 0.1% BSA, 10% DMSO, 0.36% methyl cellulose (Sigma M-6385)) from stocks prepared in 100% DMSO. Aliquots (10 μl) were transferred into 96-well microtiter plates. Membrane preparations of recombinant human cannabinoid CB2 receptor (Receptor Biology #RB-HCB2) or recombinant human cannabinoid CB1 receptor (Receptor Biology #RB-HCB1) were diluted to 0.3 mg/ml in Binding Buffer (50 mM Tris pH 7.2, 1 mM EDTA, 3 mM MgCl2, 0.1% BSA). Aliquots (50 μl) were added to each well of the microtiter plate. The binding reactions were initiated by addition of [^3H] CP-55,940 (New England Nuclear # NET 1051; specific activity=180 Ci/mmol available from New England Nuclear) to each well of the microtiter plate. Each 100 μl reaction mixture contained 0.48 nM [^3H] CP-55,940, 15 ug membrane protein in binding buffer containing 1% DMSO and 0.036% methyl cellulose. Following incubation for 2 hours at room temperature, the reaction mixtures were filtered through 0.5% polyethylenimine-coated GF/C filter plates (UniFilter-96, Packard) with a TomTec Mark 3U Harvester (Hamden, Conn.). The filter plate was washed 5 times with binding buffer, rotated 180°, then re-washed 5 times with binding buffer. Bound radioactivity was quantitated following addition of 30 μl of Packard Microscint 20 scintillant in a Packard TopCount NXT microplate scintillation counter. Non-linear regression analysis of the resulting data was performed using Prism 2.0b (from GraphPad, San Diego, Calif.).
The activities (potencies) for the compounds of the invention are determined by measuring their Ki values.

T1 sequence (P34972 whole entry): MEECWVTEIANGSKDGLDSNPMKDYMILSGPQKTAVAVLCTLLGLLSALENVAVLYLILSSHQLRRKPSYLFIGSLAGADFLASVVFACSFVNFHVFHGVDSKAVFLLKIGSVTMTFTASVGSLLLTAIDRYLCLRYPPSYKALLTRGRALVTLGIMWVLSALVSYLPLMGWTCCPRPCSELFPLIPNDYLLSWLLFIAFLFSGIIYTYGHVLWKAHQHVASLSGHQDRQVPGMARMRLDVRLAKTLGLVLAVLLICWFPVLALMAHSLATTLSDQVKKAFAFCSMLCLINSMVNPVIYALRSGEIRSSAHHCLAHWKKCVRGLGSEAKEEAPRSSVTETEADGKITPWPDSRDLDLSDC

Row | SMILES | Ki [nM]
1 | CS(=O)(=O)NC1CCc2cc(C(=O)c3ccc(OC(F)(F)F)cc3S(=O)(=O)c3ccccc3F)ccc21 (stereo not drawn) [Compound 2] | < 20
2 | CS(=O)(=O)NC1CCc2cc(S(=O)(=O)c3ccc(C4CC4)cc3S(=O)(=O)c3ccccn3)ccc21 (stereo not drawn) [Compound 9] | < 20

same assay, conditions: 0.48 nM [3H] CP-55,940, 15 ug membrane protein, 2 hours at room temperature; read-out: CB2 Ki

Row | SMILES | Ki [nM]
3 | O=S(=O)(c1ccc2c(c1)CCC2NS(=O)(=O)C(F)(F)F)c1ccc(C2CC2)cc1S(=O)(=O)c1ccccn1 (stereo not drawn) [Compound 12] | < 20
4 | CS(=O)(=O)NC1CCc2cc(S(=O)(=O)c3cc4ccccc4n3S(=O)(=O)c3ccccn3)ccc21 (stereo not drawn) [Compound 10] | < 20

Continued, values first:

Row | Ki [nM] | SMILES
5 | < 20 | O=S(=O)(c1ccc2c(c1)CCC2NS(=O)(=O)C(F)(F)F)c1ccc(Cl)cc1S(=O)(=O)c1ccccc1F (stereo not drawn) [Compound 6]
6 | < 20 | O=C(NC1CCc2cc(Cc3ccc(OC(F)(F)F)cc3S(=O)(=O)c3ccccc3F)ccc21)C(F)(F)F (stereo not drawn) [Compound 23]
7 | < 20 | CS(=O)(=O)NC1CCc2cc(S(=O)(=O)c3ccc(Cl)cc3S(=O)(=O)c3ccccn3)ccc21 (stereo not drawn) [Compound 8]
8 | < 20 | COc1ccc(S(=O)(=O)c2ccc3c(c2)CCC3NS(=O)(=O)C(F)(F)F)c(S(=O)(=O)c2ccccc2F)c1 (stereo not drawn) [Compound 5]
9 | < 20 | O=C(NC1CCc2cc(S(=O)(=O)c3ccc(C4CC4)cc3S(=O)(=O)c3ccccn3)ccc21)C(F)(F)F (stereo not drawn) [Compound 19]
